Data from US6066310A, “Diagnostic and therapeutic method for tumor using radiolabeled avidin” (Nihon Medi-Physics Co., Ltd., priority 1997, dated 2000).
Read-outs that look alike come from different tables or passages of the source.

Settings: 2 hours after biotin, LS180 xenografted mice
Method: LS 180-tumor xenografted mice received injection with 300 μg unlabeled avidin and 1-24 hours later injection with 0.3 μg In-111 labeled biotin. […] After 2 hours from the injection of biotin, 4-5 mice per group were sacrificed and measured for distribution of radioactivity.

[1] = biotin 1 hr after pre-targeting of avidin
[2] = biotin 4 hr after pre-targeting of avidin
[3] = biotin 8 hr after pre-targeting of avidin
[4] = biotin 24 hr after pre-targeting of avidin
[5] = without pre-targeting of avidin

**Q.** What does the source list for `O=C([O-])CN(CCN(CC(=O)[O-])CC(=O)NC(CCCCNC(=O)CCCCC1SCC2NC(=O)NC21)C(=O)O)CCN(CC(=O)[O-])CC(=O)NC(CCCCNC(=O)CCCCC1SCC2NC(=O)NC21)C(=O)O.[111In+3]` (stereo not drawn) [radiolabeled biotin]?
**A.** Tumor/Blood ratio of radioactivity [1]: 160.3 ± 26.9; Tumor/Bone ratio of radioactivity [1]: 60.7 ± 13.7; Tumor/Kidney ratio of radioactivity [1]: 3.48 ± 0.94; Tumor/Liver ratio of radioactivity [1]: 4.19 ± 1.45; Tumor/Spleen ratio of radioactivity [1]: 5.14 ± 2.58; radioactivity per 1 g of organ: Blood [1]: 0.38 ± 0.08; radioactivity per 1 g of organ: Bone [1]: 0.99 ± 0.08; radioactivity per 1 g of organ: Intestine [1]: 1.03 ± 0.30; radioactivity per 1 g of organ: Kidney [1]: 17.44 ± 2.16; radioactivity per 1 g of organ: Liver [1]: 14.77 ± 2.84; radioactivity per 1 g of organ: Lung [1]: 1.07 ± 0.91; radioactivity per 1 g of organ: Muscle [1]: 0.10 ± 0.06; radioactivity per 1 g of organ: Spleen [1]: 12.85 ± 4.02; radioactivity per 1 g of organ: Stomach [1]: 3.24 ± 0.63; radioactivity per 1 g of organ: Tumor [1]: 59.28 ± 9.89; Tumor/Blood ratio of radioactivity [2]: 159.0 ± 50.9; Tumor/Bone ratio of radioactivity [2]: 107.3 ± 79.1; Tumor/Kidney ratio of radioactivity [2]: 12.26 ± 2.75; Tumor/Liver ratio of radioactivity [2]: 20.89 ± 5.43; Tumor/Spleen ratio of radioactivity [2]: 22.03 ± 9.18; radioactivity per 1 g of organ: Blood [2]: 0.25 ± 0.03; radioactivity per 1 g of organ: Bone [2]: 0.60 ± 0.45; radioactivity per 1 g of organ: Intestine [2]: 0.27 ± 0.06; radioactivity per 1 g of organ: Kidney [2]: 3.30 ± 0.94; radioactivity per 1 g of organ: Liver [2]: 1.92 ± 0.58; radioactivity per 1 g of organ: Lung [2]: 0.32 ± 0.11; radioactivity per 1 g of organ: Muscle [2]: 0.32 ± 0.22; radioactivity per 1 g of organ: Spleen [2]: 2.14 ± 1.24; radioactivity per 1 g of organ: Stomach [2]: 1.08 ± 0.44; radioactivity per 1 g of organ: Tumor [2]: 39.31 ± 11.3; Tumor/Blood ratio of radioactivity [3]: 52.6 ± 23.9; Tumor/Bone ratio of radioactivity [3]: 59.22 ± 35.9; Tumor/Kidney ratio of radioactivity [3]: 7.18 ± 2.66; Tumor/Liver ratio of radioactivity [3]: 48.14 ± 20.2; Tumor/Spleen ratio of radioactivity [3]: 40.87 ± 15.0; radioactivity per 1 g of organ: Blood [3]: 0.20 ± 0.03; radioactivity per 1 g of organ: Bone [3]: 0.20 ± 0.07; radioactivity per 1 g of organ: Intestine [3]: 0.11 ± 0.02; radioactivity per 1 g of organ: Kidney [3]: 1.41 ± 0.29; radioactivity per 1 g of organ: Liver [3]: 0.21 ± 0.04; radioactivity per 1 g of organ: Lung [3]: 0.19 ± 0.10; radioactivity per 1 g of organ: Muscle [3]: 0.06 ± 0.03; radioactivity per 1 g of organ: Spleen [3]: 0.26 ± 0.13; radioactivity per 1 g of organ: Stomach [3]: 0.13 ± 0.09; radioactivity per 1 g of organ: Tumor [3]: 10.49 ± 5.16; Tumor/Blood ratio of radioactivity [4]: 9.72 ± 2.07; Tumor/Bone ratio of radioactivity [4]: 9.42 ± 2.29; Tumor/Kidney ratio of radioactivity [4]: 1.39 ± 0.40; Tumor/Liver ratio of radioactivity [4]: 11.20 ± 3.77; Tumor/Spleen ratio of radioactivity [4]: 14.75 ± 5.59; radioactivity per 1 g of organ: Blood [4]: 0.15 ± 0.07; radioactivity per 1 g of organ: Bone [4]: 0.17 ± 0.13; radioactivity per 1 g of organ: Intestine [4]: 1.18 ± 1.35; radioactivity per 1 g of organ: Kidney [4]: 1.01 ± 0.23; radioactivity per 1 g of organ: Liver [4]: 0.13 ± 0.02; radioactivity per 1 g of organ: Lung [4]: 0.13 ± 0.06; radioactivity per 1 g of organ: Muscle [4]: 0.12 ± 0.16; radioactivity per 1 g of organ: Spleen [4]: 0.10 ± 0.01; radioactivity per 1 g of organ: Stomach [4]: 1.49 ± 1.61; radioactivity per 1 g of organ: Tumor [4]: 1.45 ± 0.70; Tumor/Blood ratio of radioactivity [5]: 5.78 ± 2.44; Tumor/Bone ratio of radioactivity [5]: 5.97 ± 3.51; Tumor/Kidney ratio of radioactivity [5]: 0.55 ± 0.22; Tumor/Liver ratio of radioactivity [5]: 3.90 ± 1.32; Tumor/Spleen ratio of radioactivity [5]: 3.94 ± 1.79; radioactivity per 1 g of organ: Blood [5]: 0.12 ± 0.03; radioactivity per 1 g of organ: Bone [5]: 0.25 ± 0.34; radioactivity per 1 g of organ: Intestine [5]: 0.49 ± 0.46; radioactivity per 1 g of organ: Kidney [5]: 1.23 ± 0.21; radioactivity per 1 g of organ: Liver [5]: 0.17 ± 0.05; radioactivity per 1 g of organ: Lung [5]: 0.14 ± 0.05; radioactivity per 1 g of organ: Muscle [5]: 0.20 ± 0.27; radioactivity per 1 g of organ: Spleen [5]: 0.18 ± 0.05; radioactivity per 1 g of organ: Stomach [5]: 0.12 ± 0.03; radioactivity per 1 g of organ: Tumor [5]: 0.70 ± 0.35
